From US20170268001A1, “RNAS WITH TUMOR RADIO/CHEMO-SENSITIZING AND IMMUNOMODULATORY PROPERTIES AND METHODS OF THEIR PREPARATION AND APPLICATION” (THE UNIVERSITY OF CHICAGO, priority 2016, published 2017)

Molecular target: T1, RIG-I (Homo sapiens, UniProt O95786)
T1 construct: HEK293 cells overexpressing either the full length RIG-I; host or cells: HEK293; HCT116 also for the qRT-PCR validation
T1 sequence (O95786 1-925): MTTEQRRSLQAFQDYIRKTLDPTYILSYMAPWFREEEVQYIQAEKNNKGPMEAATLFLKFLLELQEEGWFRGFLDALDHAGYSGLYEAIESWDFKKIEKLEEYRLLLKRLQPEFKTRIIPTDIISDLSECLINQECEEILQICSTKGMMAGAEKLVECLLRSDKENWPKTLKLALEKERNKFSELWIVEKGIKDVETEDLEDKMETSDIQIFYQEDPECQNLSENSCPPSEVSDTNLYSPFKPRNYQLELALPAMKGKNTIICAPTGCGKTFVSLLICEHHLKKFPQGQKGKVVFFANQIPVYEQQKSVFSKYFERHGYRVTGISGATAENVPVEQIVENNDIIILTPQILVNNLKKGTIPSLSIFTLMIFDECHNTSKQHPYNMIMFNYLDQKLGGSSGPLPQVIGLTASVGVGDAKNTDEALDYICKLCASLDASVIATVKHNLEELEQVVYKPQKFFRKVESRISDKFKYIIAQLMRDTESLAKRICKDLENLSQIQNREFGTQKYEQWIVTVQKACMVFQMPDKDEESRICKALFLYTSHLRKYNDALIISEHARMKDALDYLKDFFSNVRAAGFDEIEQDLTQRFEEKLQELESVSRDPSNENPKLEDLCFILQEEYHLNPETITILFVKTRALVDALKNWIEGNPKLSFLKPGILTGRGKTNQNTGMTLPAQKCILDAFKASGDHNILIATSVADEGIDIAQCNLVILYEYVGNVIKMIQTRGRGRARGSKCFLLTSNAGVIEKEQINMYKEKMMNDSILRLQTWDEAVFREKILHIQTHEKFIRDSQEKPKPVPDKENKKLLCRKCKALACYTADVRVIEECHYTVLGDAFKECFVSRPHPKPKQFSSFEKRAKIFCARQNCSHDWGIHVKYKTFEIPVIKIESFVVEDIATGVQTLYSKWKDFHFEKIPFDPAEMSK
Assay: UV cross-linking with quantitative real-time PCR (CLIP-PCR) of RIG-I complexes
Format: binding
Description: Graphic representation indicating the distribution of non-coding and repetitive RNA molecules bound to RIG-I following exposure to IR as compared to total irradiated cellular RNA. Transcripts were mapped to reference genomes using RepeatMasker. See Methods for further details. […] Cells were UV crosslinked at 150 mJ/cm^2 48 hours post-IR treatment prior to cell lysis. […] FIG. 29H show IFN-b levels in culture supernatant from ICR RIG-I^+/+ and primary MEFs 24 hours post-stimulation with the same set of synthetic U1 oligonucleotides used in (FIG. 29G) The amount of U1 synthetic oligonucleotides used in all stimulation experiments was 1 μg. P values were determined using unpaired Student's t-test. Error bars are SEM. ***P<0.005.
Technically, identification of RNAs was performed as follows: HEK293 cells were transiently transfected with 3×FLAG-tagged full-size RIG-I in pEF-BOS vector (Addgene; Cambridge, Mass.). Twenty-four hours post-transfection, cells were either mock-irradiated or exposed to IR (6 Gy). Forty-eight hours post-IR, cells were lysed with a modified lysis buffer (50 mM Tris-Cl pH 7.5, 0.15 M NaCl, 0.1% NP-40, 1.0% Triton X-100, 1 mM EDTA pH8.0, 1 mM EGTA pH8.0, 10% Glycerol, 2.5 mM MgCl2, 1 mM DTT, 0.1 mM ATP, and 1× Halt Protease Inhibitor) and incubated on ice for 1 hour. Cell lysates were separated from cell debris by centrifugation at 12,000 rpm at 4° C. Protein concentration was measured by BCA kit. Anti-FLAG monoclonal antibody was added to the cell lysate at a 1:500 dilution, and incubated overnight at 4° C. Protein G sepharose beads were added to the lysates and incubated for at least 2 hours at 4° C. Beads containing the antibody-RIG-I complexes were washed five times in wash buffer (50 mM Tris-Cl pH 7.5, 0.15 M NaCl, 1 mM MgCl2, 0.05% NP-40, 1 mM DTT) and proteins were eluted from the beads using a soft elution buffer (0.5% SDS, 0.1% Tween-20, 50 mM Tris pH 8.0) for 10 minutes at room temperature with vortexing every 2-3 minutes. Proteinase K was added to the eluates and incubated at 50° C. for 45 minutes. Trizol reagent was then added to the solution, and RNA bound to RIG-I was purified following manufacturer's protocol. RNA quality was analyzed using an Agilent Bioanalyzer 2100 with Pico Series II cartridges. RNA yield was measured using the Qubit RNA Broad Range kit. For qRT-PCR validation experiments of RIG-I pulled down RNA, UV cross-linking (2 doses at 150 mJ/cm^2) was performed on HEK293 and HCT116 overexpressing RIG-I prior to cell lysis. The same protocol for pulldown and RNA purification experiments was performed as described above.

## U2: snRNA, SEQ ID NO:21
HCT116 cells overexpressing RIG-I
  enrichment in RIG-I: RNA complexes in irradiated samples: significant enrichment
HEK293 expressing WT RIG-I, IR 6 Gy
  enrichment in purified RIG-I complexes, irradiated vs non-irradiated: 6 fold

B1: M5: rbRNA, RIG-I agonist, 81 nucleotides, SEQ ID NO:26 (nucleic acid)
chain: GACGAAGACCACAAAACCAGATAAAAAATTATTTTTTATCTGGTTTTGTGGTCTTCGTCTATAGTGAGTCGTATTAATTTC
modifications: listed as DNA, chemistry not given here
RIG-I: RNA complexes isolated from HCT116 cells overexpressing RIG-I
  binding to RIG-I: binds
